Reference: patent publication US12440443B2, “Nano-emulsion of CBFβ-RUNX1 inhibitor for ocular drug deliver” (Massachusetts Eye and Ear Infirmary, priority 2017, dated 2025)

Test: Solubility behaviour of Ro5-3335 in aqueous solution
Type: physicochemical
Text: The invention provides a solution to many problems and/or drawbacks of earlier ocular formulations and features a nano-emulsion composition, e.g., a nano-emulsion comprising a core binding factor β (CBFβ)-Runt-Related Transcription Factor 1 (RUNX1) (CBFβ-RUNX1) inhibitor. […] With our emulsion, we have devised a composition to encapsulate the drug in a nanonsphere, which allows for suspension in an aqueous solution, and increases availability of the drug, and also improves penetration of ocular tissues.

SMILES: O=C1CN=C(c2ccc[nH]2)c2cc(Cl)ccc2N1 [Ro5-3335, 7-chloro-1,3-dihydro-5-(1h-pyrrol-2y-yl)-2H-1,4-benzodiazepin-2-one]
- solubility in aqueous solution: insoluble in aqueous solution
